Experimental data published in patent US11773078B2, “Furin inhibitors” (Glaxosmithkline Intellectual Property Development Limited, priority 2018, dated 2023).

How the values were obtained:
[1] = biological target: T1, Furin (108-574-Tev-Flag-His) enzyme (Homo sapiens, UniProt P09958); test: Furin enzyme assay; assay type: biochemical
T1 construct: Furin (108-574-Tev-Flag-His) enzyme was expressed and purified from CHO cells; TEV cleavage site (C); FLAG (C); His (C); made in house; host or cells: CHO cells
Procedure: Reactions were performed in black 384-well polystyrene low volume plates (Greiner). Furin (108-574-Tev-Flag-His) enzyme was expressed and purified from CHO cells. Compounds of the invention were dissolved in DMSO (1.0 mM) and serially diluted 1 to 3 with DMSO through eleven dilutions to provide a final compound concentration range from 0.00017 to 10 μM. 0.05 μL of each concentration was transferred to the corresponding well of an assay plate, and then 5 μL of 40 pM furin enzyme in assay buffer (100 mM HEPES pH7.5, 1 mM CaCl2 and 0.005% Triton X-100) was added using a Multidrop Combi (Thermo) to the compound plates, and mixed by inversion. […] The plates were centrifuged at 500×g for 1 minute and incubated at room temperature for two hours. Enzyme inhibition is then quantified using an Envision instrument (PerkinElmer).
Data were analyzed using AbaseXE 7.3, utilizing a four-parameter curve fit equation. The following values were used to define limits and/or constraints for each of the four parameters: • Minimum—limit −10 to 10 • Maximum—90 to 110 • Slope—limit 0.5 to 2.0 • pXC50 confidence interval—10
Raw counts obtained from the respective plate reader (Perkin Elmer) were captured for data analysis. Curves were generated using the equation: Y=A+[(B−A)/(1+(10^C/x)^D)] • where: A=minimum response • B=maximum response • C=log 10*XC50 • D=slope factor • x=log 10 compound concentration [M]
The results were recorded as pXC50 values (−C in the above equation)

[2] = biological target: T2, furin (endogenous protease) in U20S cells (Homo sapiens, UniProt P09958); test: Furin cell-based assay (image-based, Golgi-targeted GFP with BMP10 furin/PCSK cleavage site); details: 24-hour incubation, read-out: furin golgi cell pXC50 (converted);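 further: Read-out is mean GFP fluorescence of Golgi puncta per cell by high-content imaging, retained when furin inhibited, over an eleven-point 0.00017–10 µM series, four-parameter fit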
T2 construct: the endogenous protease cleaves GFP; endogenous in cells; host or cells: U2OS cells transduced with a BacMam reporter
T2 sequence (P09958 108-794): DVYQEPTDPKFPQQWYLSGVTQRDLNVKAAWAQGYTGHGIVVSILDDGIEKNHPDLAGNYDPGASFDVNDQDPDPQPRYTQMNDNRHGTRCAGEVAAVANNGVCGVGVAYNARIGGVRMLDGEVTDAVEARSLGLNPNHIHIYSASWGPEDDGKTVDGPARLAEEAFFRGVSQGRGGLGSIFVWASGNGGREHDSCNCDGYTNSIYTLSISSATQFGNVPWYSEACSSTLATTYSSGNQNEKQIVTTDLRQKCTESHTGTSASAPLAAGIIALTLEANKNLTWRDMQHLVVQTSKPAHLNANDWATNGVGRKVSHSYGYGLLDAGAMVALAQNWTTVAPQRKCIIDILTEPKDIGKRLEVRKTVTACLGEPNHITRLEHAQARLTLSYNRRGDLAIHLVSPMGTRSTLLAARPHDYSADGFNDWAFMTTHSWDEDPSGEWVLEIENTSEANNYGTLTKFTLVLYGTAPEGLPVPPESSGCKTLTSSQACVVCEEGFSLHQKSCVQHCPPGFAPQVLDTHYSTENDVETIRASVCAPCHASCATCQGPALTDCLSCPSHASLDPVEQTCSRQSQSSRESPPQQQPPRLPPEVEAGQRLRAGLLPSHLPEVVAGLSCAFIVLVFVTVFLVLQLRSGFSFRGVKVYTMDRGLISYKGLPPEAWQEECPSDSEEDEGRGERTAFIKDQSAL

T1 sequence (P09958 108-574): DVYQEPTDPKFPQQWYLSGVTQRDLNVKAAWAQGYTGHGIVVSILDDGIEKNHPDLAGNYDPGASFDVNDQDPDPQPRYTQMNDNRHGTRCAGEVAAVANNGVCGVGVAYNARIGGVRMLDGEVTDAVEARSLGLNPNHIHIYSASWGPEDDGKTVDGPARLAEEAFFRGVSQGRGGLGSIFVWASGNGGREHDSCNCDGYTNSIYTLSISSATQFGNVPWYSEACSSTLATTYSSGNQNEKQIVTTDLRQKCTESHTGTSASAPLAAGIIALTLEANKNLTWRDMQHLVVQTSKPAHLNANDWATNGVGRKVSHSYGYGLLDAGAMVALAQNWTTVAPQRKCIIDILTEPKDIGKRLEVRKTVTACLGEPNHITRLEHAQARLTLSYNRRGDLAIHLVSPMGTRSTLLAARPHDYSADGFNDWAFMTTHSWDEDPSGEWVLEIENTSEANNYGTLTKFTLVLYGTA

furin enzyme pIC50 [1] | EC50 [2] [nM] | Structure (SMILES)
10.2 | 0.398 | CC(=O)NCC1CCN(Cc2cc(Oc3cnc(N4CCN(C(C)CCS(C)(=O)=O)CC4)nc3)nc(-c3cc(Cl)cc(Cl)c3)c2)CC1 (stereo not shown) [Example 19, N-((1-((2-(3,5-dichlorophenyl)-6-((2-(4-(4-(methylsulfonyl)butan-2-yl)piperazin-1-yl)pyrimidin-5-yl)oxy)pyridin-4-yl)methyl)piperidin-4-yl)methyl)acetamide]
9.9 | 6.31 | CC(CO)N1CCN(c2ncc(Oc3cc(CN4CCC(CC(=O)O)CC4)cc(-c4cc(Cl)cc(Cl)c4)n3)cn2)CC1 (stereo not shown) [Example 21, 2-(1-((2-(3,5-dichlorophenyl)-6-((2-(4-(1-hydroxypropan-2-yl)piperazin-1-yl)pyrimidin-5-yl)oxy)pyridin-4-yl)methyl)piperidin-4-yl)acetic acid]
9.5 | 10 | O=C(O)CC1CCN(Cc2cc(Oc3cnc(N4CCN(C5CC(O)C5)CC4)nc3)nc(-c3cc(Cl)cc(Cl)c3)c2)CC1 (stereo not shown) [Example 22, 2-(1-((2-(3,5-dichlorophenyl)-6-((2-(4-(3-hydroxycyclobutyl)piperazin-1-yl)pyrimidin-5-yl)oxy)pyridin-4-yl)methyl)piperidin-4-yl)acetic acid]
8.3 | 15.8 | O=C(O)CC1CCN(Cc2cc(Oc3cnc(N4CCN(C(CO)CO)CC4)nc3)nc(-c3cc(Cl)cc(Cl)c3)c2)CC1 [Example 23, 2-(1-((2-(3,5-dichlorophenyl)-6-((2-(4-(1,3-dihydroxypropan-2-yl)piperazin-1-yl)pyrimidin-5-yl)oxy)pyridin-4-yl)methyl)piperidin-4-yl)acetic acid]
8.6 | 12.6 | C[C@]1(O)C[C@@H](N2CCN(c3ncc(Oc4cc(CN5CCC(CC(=O)O)CC5)cc(-c5cc(Cl)cc(Cl)c5)n4)cn3)CC2)C1 [Example 24, 2-(1-((2-(3,5-dichlorophenyl)-6-((2-(4-((1s,3s)-3-hydroxy-3-methylcyclobutyl)piperazin-1-yl)pyrimidin-5-yl)oxy)pyridin-4-yl)methyl)piperidin-4-yl)acetic acid]
8.2 | 12.6 | C[C@]1(O)C[C@H](N2CCN(c3ncc(Oc4cc(CN5CCC(CC(=O)O)CC5)cc(-c5cc(Cl)cc(Cl)c5)n4)cn3)CC2)C1 [Example 25, 2-(1-((2-(3,5-dichlorophenyl)-6-((2-(4-((1r,3r)-3-hydroxy-3-methylcyclobutyl)piperazin-1-yl)pyrimidin-5-yl)oxy)pyridin-4-yl)methyl)piperidin-4-yl)acetic acid]
9 | < 0.794 | CC(=O)NCC1CCN(Cc2cc(Oc3ccc(N4CCN(CC(O)CCO)CC4)nc3)nc(-c3cc(Cl)cc(Cl)c3)c2)CC1 (stereo not shown) [Example 29, N-((1-((2-(3,5-Dichlorophenyl)-6-((6-(4-(2,4-dihydroxybutyl)piperazin-1-yl)pyridin-3-yl)oxy)pyridin-4-yl)methyl)piperidin-4-yl)methyl)acetamide]
9.1 | 6.31 | CC(=O)NCC1CCN(Cc2cc(Oc3ccc(N4CCN(CCOC(N)=O)CC4)nc3)nc(-c3cc(Cl)cc(Cl)c3)c2)CC1 [Example 31, 2-(4-(5-((4-((4-(Acetamidomethyl)piperidin-1-yl)methyl)-6-(3,5-dichlorophenyl)pyridin-2-yl)oxy)pyridin-2-yl)piperazin-1-yl)ethyl carbamate]
8.5 | 39.8 | CC(=O)NCC1CCN(Cc2cc(Oc3ccc(N4CCN(C(=O)CCC(=O)O)CC4)nc3)nc(-c3cc(Cl)cc(Cl)c3)c2)CC1 [Example 33, 4-(4-(5-((4-((4-(Acetamidomethyl)piperidin-1-yl)methyl)-6-(3,5-dichlorophenyl)pyridin-2-yl)oxy)pyridin-2-yl)piperazin-1-yl)-4-oxobutanoic acid]
8.8 | 3.16 | CC(=O)NCC1CCN(Cc2cc(Oc3ccc(N4CCN(CC5(O)CC5)CC4)nc3)nc(-c3cc(Cl)cc(Cl)c3)c2)CC1 [Example 35, N-((1-((2-(3,5-Dichlorophenyl)-6-((6-(4-((1-hydroxycyclopropyl)methyl)piperazin-1-yl)pyridin-3-yl)oxy)pyridin-4-yl)methyl)piperidin-4-yl)methyl)acetamide]
8.5 | 12.6 | CNCc1cc(Oc2cnc(N3CCN(CCCS(C)(=O)=O)CC3)nc2)nc(-c2cc(Cl)cc(Cl)c2)c1 [Example 37, 1-(2-(3,5-Dichlorophenyl)-6-((2-(4-(3-(methylsulfonyl)propyl)piperazin-1-yl)pyrimidin-5-yl)oxy)pyridin-4-yl)-N-methylmethanamine]

Further lines, the compound ahead of its results:

Structure (SMILES) | furin enzyme pIC50 [1] | EC50 [2] [nM]
CNC(=O)NCC1CCN(Cc2cc(Oc3cnc(N4CCN(C(C)CCS(C)(=O)=O)CC4)nc3)nc(-c3cc(Cl)cc(Cl)c3)c2)CC1 (stereo not shown) [Example 18, 1-((1-((2-(3,5-dichlorophenyl)-6-((2-(4-(4-(methylsulfonyl)butan-2-yl)piperazin-1-yl)pyrimidin-5-yl)oxy)pyridin-4-yl)methyl)piperidin-4-yl)methyl)-3-methylurea] | 10.7 | 0.501
CNC(=O)NCC1CCN(Cc2cc(Oc3cnc(N4CCN(C(C)CCO)CC4)nc3)nc(-c3cc(Cl)cc(Cl)c3)c2)CC1 (stereo not shown) [Example 20, 1-((1-((2-(3,5-dichlorophenyl)-6-((2-(4-(4-hydroxybutan-2-yl)piperazin-1-yl)pyrimidin-5-yl)oxy)pyridin-4-yl)methyl)piperidin-4-yl)methyl)-3-methylurea] | 9.6 | 1
CC(=O)NCC1CCN(Cc2cc(Oc3ccc(N4CCN([C@H]5C[C@H](NS(C)(=O)=O)C5)CC4)nc3)nc(-c3cc(Cl)cc(Cl)c3)c2)CC1 [Example 26, N-((1-((2-(3,5-Dichlorophenyl)-6-((6-(4-((trans)-3-(methylsulfonamido)cyclobutyl)piperazin-1-yl)pyridin-3-yl)oxy)pyridin-4-yl)methyl)piperidin-4-yl)methyl)acetamide] | 9.9 | 1.58
CC(=O)NCC1CCN(Cc2cc(Oc3ccc(N4CCN([C@H]5C[C@@H](NS(C)(=O)=O)C5)CC4)nc3)nc(-c3cc(Cl)cc(Cl)c3)c2)CC1 [Example 27, N-((1-((2-(3,5-Dichlorophenyl)-6-((6-(4-((cis)-3-(methylsulfonamido)cyclobutyl)piperazin-1-yl)pyridin-3-yl)oxy)pyridin-4-yl)methyl)piperidin-4-yl)methyl)acetamide] | 9.6 | 3.16
CC(=O)NCC1CCN(Cc2cc(Oc3ccc(N4CCN(CCN)CC4)nc3)nc(-c3cc(Cl)cc(Cl)c3)c2)CC1 [Example 28, N-((1-((2-((6-(4-(2-Aminoethyl)piperazin-1-yl)pyridin-3-yl)oxy)-6-(3,5-dichlorophenyl)pyridin-4-yl)methyl)piperidin-4-yl)methyl)acetamide] | 9 | 2
CC(=O)NCC1CCN(Cc2cc(Oc3ccc(N4CCN(CCP(=O)(O)O)CC4)nc3)nc(-c3cc(Cl)cc(Cl)c3)c2)CC1 [Example 30, (2-(4-(5-((4-((4-(Acetamidomethyl)piperidin-1-yl)methyl)-6-(3,5-dichlorophenyl)pyridin-2-yl)oxy)pyridin-2-yl)piperazin-1-yl)ethyl)phosphonic acid] | 9.1 | 501
CC(=O)NCC1CCN(Cc2cc(Oc3ccc(N4CCN(CCN(C)S(C)(=O)=O)CC4)nc3)nc(-c3cc(Cl)cc(Cl)c3)c2)CC1 [Example 32, N-((1-((2-(3,5-dichlorophenyl)-6-((6-(4-(2-(N-methylmethylsulfonamido)ethyl)piperazin-1-yl)pyridin-3-yl)oxy)pyridin-4-yl)methyl)piperidin-4-yl)methyl)acetamide] | 8.7 | 10
CC(=O)NCC1CCN(Cc2cc(Oc3ccc(N4CCN(CC5(CO)CC5)CC4)nc3)nc(-c3cc(Cl)cc(Cl)c3)c2)CC1 [Example 34, N-((1-((2-(3,5-Dichlorophenyl)-6-((6-(4-((1-(hydroxymethyl)cyclopropyl)methyl)piperazin-1-yl)pyridin-3-yl)oxy)pyridin-4-yl)methyl)piperidin-4-yl)methyl)acetamide] | 9.4 | 5.01
CCNC(=O)CC1CCN(Cc2cc(Oc3ccc(N4CCN(CCCS(C)(=O)=O)CC4)nc3)nc(-c3cc(Cl)cc(Cl)c3)c2)CC1 [Example 36, 2-(1-((2-(3,5-Dichlorophenyl)-6-((6-(4-(3-(methylsulfonyl)propyl)piperazin-1-yl)pyridin-3-yl)oxy)pyridin-4-yl)methyl)piperidin-4-yl)-N-ethylacetamide] | 9 | 5.01
